Test results published in patent US20240041838A1, “METHODS AND COMPOSITIONS FOR INHIBITION OF NEUTROPHIL RECRUITMENT IN MYCOCARDIAL ISCHEMIA-REPERFUSION INJURY” (University of Connecticut, priority 2022, published 2024).
Where “and” joins values, the source holds several entries; their conditions need not be identical. Equal entries are not always repeated.

What was measured:
[1] = tested on: Rac-1 activation in HL60-CXCR2 or HL60 cells; assay: Rac-1-GTP pull-down and western blot in HL60 / HL60-CXCR2 cells; type: cell-based; conditions: 10 μM, RT 1 hour
Procedure: The HL60 cells and CXCR2-expressing HL60 cells (HL60-CXCR2)(50) were gifts from Dr. Orion D. Weiner at the University of California San Francisco and Dr. Ann Richmond at the Vanderbilt University School of Medicine, respectively. HL60-CXCR2 cells were selected with G418 ([…]) to maintain CXCR2 expression. Cells were maintained in culture medium (RPMI-1640, 10% FBS, 100 μg·mL^−1 penicillin, 100 μg·mL^−1 streptomycin, and 250 ng·mL^−1 amphotericin B) at 37° C. and 5% CO2. In most experiments, cells were differentiated with 1.3% DMSO for 7 days before assays. Cells were checked monthly for mycoplasma infection using the e-Myco plus Mycoplasma PCR Detection Kit.
After washes, cells were resuspended in RPMI-1640 without phenol red (10^7 cells·mL^−1) and incubated with or without stimulators (100 nM fMLP for HL60, 1 μg·mL^−1 IL-8 for HL60-CXCR2) at RT for 1 minute. Cells were lysed by 1:1 addition of 2× Triton X-100 lysis buffer (final concentration: 1% Triton X-100, 50 mM HEPES pH 7.0, 150 mM NaCl, 10% glycerol, 1.5 mM MgCl2, 1 mM EGTA, 1 mM sodium orthovanadate, 1 mM phenylmethylsulfonyl fluoride, plus protease inhibitor mixture—one Pierce protease inhibitor mini-tablet per 5 mL 2× buffer) on ice for 5 minutes. After centrifuging at 16,000×g, 4° C. for 8 minutes, supernatants were saved as protein samples.

[2] = tested on: Rac-1 activation in human neutrophils; assay: Rac-1-GTP pull-down and western blot in human neutrophils; type: cell-based; conditions: 10 μM, RT 1 hour, IL-8 1 μg·mL^−1, increase about 60% without drug
human neutrophils [3] = assay: total ROS production of isolated human neutrophils after PMA; type: cell-based; conditions: 10 μM; after 50 min of 100 nM PMA; ICAM-1-coated wells
Procedure: ROS production of isolated human neutrophils was quantified by using the Total ROS Assay kit from Invitrogen. A black, clear bottom, non-treated 96-well plate was used in this assay. Before the assay, the 96-well plate was coated with 10 μg·mL^−1 human ICAM-1-Fc at RT for 2 hours and washed twice with PBS. […] After centrifuging at 300×g, RT for 2 min, cells were resuspended at 10^6 cells·mL^−1 in the ROS Assay Stain Solution from the kit and incubated with 2 μg·mL^−1 mouse anti-human CD18 blocking mAb (TS1/18 to block neutrophil adhesion) or isotype control at RT for 10 min. The 100 μL·well^−1 neutrophils (3 replicates per group) were seeded into the ICAM-1-coated 96-well plate. The background ROS before stimulation was measured by Cytation 1 Cell Imaging Multi-Mode Reader (Filter set: Green, Ex: 485/20 nm, Em: 528/20 nm, BioTek, Santa Clara, CA). Then 100 nM PMA was added to each well, and ROS production was measured by Cytation 1 Cell Imaging Multi-Mode Reader every 5 minutes.

[4] = pharmacokinetics after i.p. injection in mice; type: in vivo, mouse; conditions: plasma
Procedure: Pharmacokinetics was performed through a service provided by the Shanghai Institute of Materia Medica. […] Blood samples (20 μL) were collected at 3 min, 15 min, 45 min, 2 h, 4 h, 8 h, and 24 h through femoral vein phlebotomy. 200 μL of methanol:acetonitrile (1:1, v/v) with internal standard was added to […] of plasma and vortexed thoroughly. After centrifuging at 11000 rpm, RT for 5 min, 20 μL of the supernatant was collected and mixed with 20 μL of water for analysis. Samples were analyzed by a TQ-S triple quadrupole mass spectrometer (Waters, Milford, MA, USA). An Acquity Uplc Beh C18 Column (1.7 μm, 2.0 mm×50 mm, Waters) was used for the analysis. Gradient elution was applied consisting of 5 mM […] containing 0.1% formic acid and methanol:acetonitrile (1/9, v/v) containing 0.1% formic acid.

human neutrophils [5] = conditions: 1 and 4 hours of incubation; previous study; cited from earlier work
human neutrophils [6] = conditions: 30 mins GM-CSF and fMLP; pretreatment; cited from earlier work

CC(C)(C)C(=O)/C(=C\c1cccc([N+](=O)[O-])c1)n1cncn1 [Nexinhib20, 4,4-dimethyl-1-(3-nitrophenyl)-2-(1H-1,2,4-triazol-1-yl)-1-penten-3-one]
IL-8-induced increase of Rac-1-GTP ([1]; HL60-CXCR2 cells, IL-8 1 μg·mL^−1, 1 minute, increase about 80% without drug): eliminated these increases
fMLP-induced increase of Rac-1-GTP ([1]; HL60 cells, fMLP 100 nM, 1 minute, increase about 50% without drug): eliminated these increases
IL-8-induced increase of Rac-1-GTP [2]: eliminated these increases
total ROS production (human neutrophils [3]): significantly reduced
concentration at 4 h ([4]; male, mouse, ip, 0.8 μmol per mouse, 4 h): < 28800 ng/mL and < 96 nM
half-life ([4]; male, mouse, ip, 0.8 μmol per mouse, one phase exponential decay fit, 95% CI): 11.5 to 16.3 min
time within which Nexinhib20 was degraded [4]: ≤ 2 h
cell death compared to DMSO vehicle controls (human neutrophils [5]): did not induce a significant increase in cell death
CD11b upregulation (human neutrophils [6]): diminished
